Measurements: PubChem BioAssay AID248 (DTP/NCI, 2004)
Where “and” joins values, the source holds several entries; their conditions need not be identical. Identical values can stand only once. Toxic doses and inconclusive results are not listed. Cut-off read from the data, not from the text of the source: active = T/C of 150% or more; inactive = T/C below 125%.

Test system: L1210 leukemia ip in BDF1 mice, survival T/C
Test: NCI In Vivo Anticancer Drug Screen. Data for tumor model L1210 Leukemia (intraperitoneal) in B6D2F1 (BDF1) mice
Settings: endpoint: mean survival time, higher = longer survival
In short: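 Survival endpoint. Drug-treated group vs vehicle group, expressed as T divided by C. Tumor passaged by transplantation.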

[1] = dose: 100.0 mg/kg/injection, schedule: Q01DX009 (ip), vehicle: Klucel (hydroxypropylcellulose) (HPC)
[2] = dose: 200.0 mg/kg/injection, schedule: Q01DX009 (ip), vehicle: Klucel (hydroxypropylcellulose) (HPC)
[3] = dose: 400.0 mg/kg/injection, schedule: Q01DX009 (ip), vehicle: Klucel (hydroxypropylcellulose) (HPC)
[4] = dose: 50.0 mg/kg/injection, schedule: Q01DX001 (ip), vehicle: carboxymethylcellulose (CMC)
[5] = dose: 100.0 mg/kg/injection, schedule: Q01DX001 (ip), vehicle: carboxymethylcellulose (CMC)
[6] = dose: 200.0 mg/kg/injection, schedule: Q01DX001 (ip), vehicle: carboxymethylcellulose (CMC)
[7] = dose: 100.0 mg/kg/injection, schedule: Q01DX001 (ip), vehicle: saline
[8] = dose: 200.0 mg/kg/injection, schedule: Q01DX001 (ip), vehicle: saline
[9] = dose: 400.0 mg/kg/injection, schedule: Q01DX001 (ip), vehicle: saline
[10] = dose: 100.0 mg/kg/injection, schedule: Q01DX009 (ip), vehicle: other
[11] = dose: 100.0 mg/kg/injection, schedule: Q04DX003 (ip), vehicle: Klucel (hydroxypropylcellulose) (HPC)
[12] = dose: 200.0 mg/kg/injection, schedule: Q04DX003 (ip), vehicle: Klucel (hydroxypropylcellulose) (HPC)
[13] = dose: 400.0 mg/kg/injection, schedule: Q04DX003 (ip), vehicle: Klucel (hydroxypropylcellulose) (HPC)

Measured: T/C

CC(=O)c1cccc(N)c1
inactive: [1] 94 % of control | dose: 100.0 mg/kg/injection, schedule: Q04DX003 (ip), vehicle: saline 95 % of control | [2] 93 % of control | dose: 200.0 mg/kg/injection, schedule: Q04DX003 (ip), vehicle: saline 95 % of control | [3] 93 % of control | dose: 400.0 mg/kg/injection, schedule: Q04DX003 (ip), vehicle: saline 88 % of control

CCN(CC)CCOc1ccccc1-c1nc2ccccc2s1
inactive: dose: 25.0 mg/kg/injection, schedule: Q01DX009 (ip), vehicle: Klucel (hydroxypropylcellulose) (HPC) 104 % of control | dose: 50.0 mg/kg/injection, schedule: Q01DX009 (ip), vehicle: Klucel (hydroxypropylcellulose) (HPC) 98 % of control | [1] 96 % of control and 108 % of control

C[P+]1(c2ccccc2)CCC(N)=C(C#N)C1 (stereo not given)
inactive: dose: 100.0 mg/kg/injection, schedule: Q04DX002 (ip), vehicle: saline with Tween-80 100 % of control

COc1cccc(C2N(Cc3ccc(N(CCCl)CCCl)cc3C)CCCN2Cc2ccc(N(CCCl)CCCl)cc2C)c1O
inactive: [4] 116 % of control | [5] 120 % of control | [6] 100 % of control

C/C(CNc1nc(N)nc(N)c1N=Nc1ccc(Cl)cc1)=N\NC(N)=O
inactive: [7] 94 % of control | [8] 98 % of control | [9] 94 % of control

CCCCNC(=O)n1ncc2cc(Cl)ccc21
inactive: [7] 103 % of control | [8] 100 % of control | [9] 94 % of control

CCCCCCC(=O)/C=C/c1ccccc1Cl
inactive: [10] 98 % of control | dose: 200.0 mg/kg/injection, schedule: Q01DX009 (ip), vehicle: other 92 % of control | dose: 400.0 mg/kg/injection, schedule: Q01DX009 (ip), vehicle: other 93 % of control

CS(=O)(=O)OC[C@@H](O)[C@@H](O)COS(C)(=O)=O
inactive: dose: 100.0 mg/kg/injection, schedule: Q01DX009 (ip), vehicle: saline sonified 101 % of control | dose: 200.0 mg/kg/injection, schedule: Q01DX009 (ip), vehicle: saline sonified 98 % of control | dose: 400.0 mg/kg/injection, schedule: Q01DX009 (ip), vehicle: saline sonified 103 % of control

O=[N+]([O-])c1ccc(F)c(Cl)c1
inactive: [10] 98 % of control | dose: 100.0 mg/kg/injection, schedule: Q04DX003 (ip), vehicle: other 105 % of control | dose: 200.0 mg/kg/injection, schedule: Q04DX003 (ip), vehicle: other 100 % of control | dose: 400.0 mg/kg/injection, schedule: Q04DX003 (ip), vehicle: other 90 % of control

COc1ccc(CC[n+]2cccc(C#N)c2)cc1OC
inactive: dose: 75.0 mg/kg/injection, schedule: Q01DX001 (ip), vehicle: carboxymethylcellulose (CMC) 105 % of control | dose: 150.0 mg/kg/injection, schedule: Q01DX001 (ip), vehicle: carboxymethylcellulose (CMC) 100 % of control

c1ccc2cc(-c3nc4cccc5c4n3CCC5)ccc2c1
inactive: dose: 100.0 mg/kg/injection, schedule: Q01DX009 (ip), vehicle: saline with Tween-80 97 % of control | dose: 100.0 mg/kg/injection, schedule: Q04DX003 (ip), vehicle: saline with Tween-80 92 % of control | dose: 200.0 mg/kg/injection, schedule: Q01DX009 (ip), vehicle: saline with Tween-80 95 % of control | dose: 200.0 mg/kg/injection, schedule: Q04DX003 (ip), vehicle: saline with Tween-80 89 % of control | dose: 400.0 mg/kg/injection, schedule: Q01DX009 (ip), vehicle: saline with Tween-80 98 % of control | dose: 400.0 mg/kg/injection, schedule: Q04DX003 (ip), vehicle: saline with Tween-80 94 % of control

O=C(Nc1cccc(C(F)(F)F)c1)N(CCO)Cc1ccccc1
inactive: dose: 100.0 mg/kg/injection, schedule: Q01DX001 (ip), vehicle: Klucel (hydroxypropylcellulose) (HPC) 104 % of control | [1] 100 % of control and 109 % of control | [11] 103 % of control | dose: 200.0 mg/kg/injection, schedule: Q01DX001 (ip), vehicle: Klucel (hydroxypropylcellulose) (HPC) 105 % of control | [2] 100 % of control and 114 % of control | [12] 99 % of control | dose: 400.0 mg/kg/injection, schedule: Q01DX001 (ip), vehicle: Klucel (hydroxypropylcellulose) (HPC) 102 % of control | [3] 93 % of control and 107 % of control | [13] 95 % of control

CC1CN1CCS(=O)(=O)CCN1CC1C (stereo not given)
inactive: dose: 0.3 mg/kg/injection, schedule: Q01DX015 (ip), vehicle: carboxymethylcellulose (CMC) 95 % of control | dose: 0.6 mg/kg/injection, schedule: Q01DX015 (ip), vehicle: carboxymethylcellulose (CMC) 101 % of control | dose: 1.2 mg/kg/injection, schedule: Q01DX015 (ip), vehicle: carboxymethylcellulose (CMC) 109 % of control | dose: 1.25 mg/kg/injection, schedule: Q01DX015 (ip), vehicle: carboxymethylcellulose (CMC) 101 % of control | dose: 2.5 mg/kg/injection, schedule: Q01DX015 (ip), vehicle: carboxymethylcellulose (CMC) 103 % of control and 110 % of control | dose: 3.1 mg/kg/injection, schedule: Q01DX015 (ip), vehicle: saline 102 % of control | dose: 4.6 mg/kg/injection, schedule: Q01DX015 (ip), vehicle: saline 102 % of control | dose: 5.0 mg/kg/injection, schedule: Q01DX015 (ip), vehicle: carboxymethylcellulose (CMC) 101 % of control | dose: 7.0 mg/kg/injection, schedule: Q01DX015 (ip), vehicle: saline 94 % of control | dose: 10.0 mg/kg/injection, schedule: Q01DX015 (ip), vehicle: carboxymethylcellulose (CMC) 100 % of control and 112 % of control | dose: 10.0 mg/kg/injection, schedule: Q01DX015 (ip), vehicle: saline 100 % of control | dose: 20.0 mg/kg/injection, schedule: Q01DX015 (ip), vehicle: carboxymethylcellulose (CMC) 108 % of control | dose: 40.0 mg/kg/injection, schedule: Q01DX015 (ip), vehicle: carboxymethylcellulose (CMC) 114 % of control

O=C(Oc1ccc([N+](=O)[O-])cc1)c1ccccc1S(=O)OCCc1ccccc1 (stereo not given)
inactive: dose: 100.0 mg/kg/injection, schedule: Q01DX001 (ip), vehicle: other 92 % of control | dose: 200.0 mg/kg/injection, schedule: Q01DX001 (ip), vehicle: other 95 % of control

O=C1c2ccccc2-c2cc3ccccc3cc21
inactive: [7] 100 % of control | [1] 92 % of control | [11] 108 % of control | [8] 101 % of control | [2] 92 % of control | [12] 108 % of control | [9] 103 % of control | [3] 90 % of control | [13] 110 % of control

O=C(Nc1cccc(F)c1)Nc1ccccc1Cl
inactive: [1] 105 % of control | [2] 97 % of control | [3] 95 % of control

O=C(CCBr)N1CCCN(C(=O)CCBr)CC1
inactive: dose: 106.0 mg/kg/injection, schedule: Q01DX Z (ip), vehicle: carboxymethylcellulose (CMC) 114 % of control | dose: 160.0 mg/kg/injection, schedule: Q01DX Z (ip), vehicle: carboxymethylcellulose (CMC) 119 % of control

NC(=O)NC(=O)C(Cl)c1ccccc1 (stereo not given)
inactive: [4] 103 % of control | [5] 97 % of control | [6] 103 % of control | dose: 400.0 mg/kg/injection, schedule: Q01DX001 (ip), vehicle: carboxymethylcellulose (CMC) 101 % of control

CC/C(=N\NS(=O)(=O)c1ccc(C)cc1)C(C)C
inactive: dose: 75.0 mg/kg/injection, schedule: Q01DX001 (ip), vehicle: saline 95 % of control | dose: 75.0 mg/kg/injection, schedule: Q04DX003 (ip), vehicle: saline 91 % of control | dose: 150.0 mg/kg/injection, schedule: Q01DX001 (ip), vehicle: saline 95 % of control | dose: 150.0 mg/kg/injection, schedule: Q04DX003 (ip), vehicle: saline 100 % of control | dose: 300.0 mg/kg/injection, schedule: Q01DX001 (ip), vehicle: saline 97 % of control | dose: 300.0 mg/kg/injection, schedule: Q04DX003 (ip), vehicle: saline 96 % of control

CC1CC(=O)c2ccccc2N1S(C)(=O)=O (stereo not given)
inactive: [1] 95 % of control | [11] 102 % of control | [2] 95 % of control | [12] 102 % of control | [3] 101 % of control | [13] 94 % of control

O=C(Nc1ccc(CCC2=NCCN2)cc1)c1ccc(C(=O)Nc2ccc(CCC3=NCCN3)cc2)cc1
inactive: dose: 30.0 mg/kg/injection, schedule: Q01DX Z (oral), vehicle: saline 101 % of control | dose: 60.0 mg/kg/injection, schedule: Q01DX Z (oral), vehicle: saline 103 % of control | dose: 120.0 mg/kg/injection, schedule: Q01DX Z (oral), vehicle: saline 106 % of control | dose: 240.0 mg/kg/injection, schedule: Q01DX Z (oral), vehicle: saline 97 % of control
